“Also recorded” adds a separate entry of the source. Read-outs that look alike come from different tables or passages of the source. Where a SMILES comes first, the peptide text is derived from it. Where no end group is shown, it is not given here. The star is where a group is joined. For = O=C*
Experiments:
Type in all cases: cell-based
[1] = target: T1, Hs_FPR1 (Homo sapiens, UniProt P21462); assay: Internalization of FLAG-tagged receptors by flow cytometry; design: Emax: dose or concentration left out as unconfirmed; settings: for agonist-induced internalization (words): Hs_FPR1, 30 min, relative to 1 μM WKYMVm; for Emax: read-out: Emax (%), internalization, Mean
T1 construct: expressed in transfected cells
T1 sequence (P21462 1-350): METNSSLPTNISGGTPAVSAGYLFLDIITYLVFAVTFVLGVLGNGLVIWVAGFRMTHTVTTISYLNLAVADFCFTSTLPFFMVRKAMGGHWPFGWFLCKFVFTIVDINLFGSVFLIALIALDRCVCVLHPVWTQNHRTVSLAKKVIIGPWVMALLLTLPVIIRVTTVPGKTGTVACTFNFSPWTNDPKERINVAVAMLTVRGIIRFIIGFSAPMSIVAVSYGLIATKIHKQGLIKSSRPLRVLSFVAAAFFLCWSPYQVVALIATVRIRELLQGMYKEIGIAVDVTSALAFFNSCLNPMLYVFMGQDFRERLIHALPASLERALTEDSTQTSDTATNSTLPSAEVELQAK
Procedure: (§1) Internalization of FPRs was measured by flow cytometry.[30] Briefly, cells were incubated with Alexa Fluor 657 conjugated M1 antiflag antibody (Sigma-Aldrich Cat# F3040, RRID:AB_439712) for 30 minutes at 37 °C to label surface receptors. Cells were then incubated with the indicated concentration of ligand before washing in PBS/0.04% EDTA to remove any remaining surface antibody. Remaining fluorescence was then measured using flow cytometry on either a BD FACScalibur or Attune, recording 5000 gated events. […] As a control, some samples were left untreated, and “strip only” was measured as a readout of constitutive endocytosis, and this value was subtracted from the data.
(§2) All data were analyzed using GraphPad Prism using the nonlinear regression log(agonist) versus response (3 parameters) function for all assays, except binding, which was analyzed using the One site-FitlogIC50 function. Bias calculations were carried out following IUPHAR guidelines as described,[27]^,[37] and data were presented as the Δ Activity ratio (Log[EmaxB/EC50B])-(Log[EmaxA/EC50A]).

[2] = target: T2, Hs_FPR2 (Homo sapiens, UniProt P25090); assay: as above; design: Emax: dose or concentration left out as unconfirmed; settings: for Emax (%), internalization, Mean: % of internalization to WKYMVm (1 mM in legend, 1 μM in text), Hs_FPR2, 30 minutes; for Emax (%), internalization, Mean / Log EC50 (M), internalization, Mean: ND denotes no internalization measured; for agonist-induced internalization (words): Hs_FPR2, 30 min, relative to 1 μM WKYMVm; for Log EC50 (M), internalization, Mean: HEK293 stably expressing FLAG-Hs_FPR2, ligand 30 minutes
T2 construct: expressed in transfected cells
T2 sequence (P25090 1-351): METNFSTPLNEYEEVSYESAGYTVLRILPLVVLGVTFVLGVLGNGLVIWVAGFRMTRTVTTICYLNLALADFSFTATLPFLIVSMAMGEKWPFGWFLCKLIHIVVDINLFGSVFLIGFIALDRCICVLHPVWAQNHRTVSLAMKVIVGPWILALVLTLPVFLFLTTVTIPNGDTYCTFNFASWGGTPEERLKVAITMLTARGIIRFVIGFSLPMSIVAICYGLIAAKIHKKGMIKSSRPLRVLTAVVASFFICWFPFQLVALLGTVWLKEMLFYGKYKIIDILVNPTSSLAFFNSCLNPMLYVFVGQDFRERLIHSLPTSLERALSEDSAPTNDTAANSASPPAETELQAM
Procedure: as §1, §2

[3] = target: T2, Hs_FPR2; assay: BRET receptor-RLuc8 interaction with Arrestin 3-YFP; settings: for Emax (%) / Log EC50 (M): Arrestin 3 BRET, mean, ND = no interaction detected; for Emax (%): % of response to 1 μM WKYMVm; for Log EC50 (M): log of EC50, HEK293 transient, 10 min
Procedure, shortened: (§3)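 Receptor-RLuc8 and acceptor plasmids (Venus-mGsi or YFP-Arrestin 3, 1:4) are transfected; cells are replated after 24 h and grown 24–48 h more. Wells are equilibrated 30 min in HBSS, given coelenterazine h (5 μM final), dosed with compound 5 min later and held 10 min at 37 °C before the BRET read.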

[4] = target: T3, Mm_Fpr1 (Mus musculus, UniProt P33766); assay: Internalization of FLAG-tagged receptors by flow cytometry; design: Emax: dose or concentration left out as unconfirmed; settings: for agonist-induced internalization (words): Mm_Fpr1, 30 min, relative to 1 μM WKYMVm
T3 construct: expressed in transfected cells
T3 sequence (P33766 1-364): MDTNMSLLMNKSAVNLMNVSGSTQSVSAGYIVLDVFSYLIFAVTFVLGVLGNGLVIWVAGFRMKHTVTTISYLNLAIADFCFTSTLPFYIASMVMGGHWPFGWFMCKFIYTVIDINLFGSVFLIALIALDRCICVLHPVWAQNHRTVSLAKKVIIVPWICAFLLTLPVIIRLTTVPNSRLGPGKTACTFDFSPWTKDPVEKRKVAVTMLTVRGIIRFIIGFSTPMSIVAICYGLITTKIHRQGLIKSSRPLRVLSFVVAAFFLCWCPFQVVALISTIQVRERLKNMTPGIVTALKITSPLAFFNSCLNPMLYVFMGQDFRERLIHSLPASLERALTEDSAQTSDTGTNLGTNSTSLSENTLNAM
Procedure, shortened: (§4)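 Surface FLAG-receptors labelled with Alexa Fluor-conjugated M1 anti-FLAG for 30 min at 37 °C, then exposed to ligand; surface antibody stripped with PBS/0.04% EDTA and internalised fluorescence read by flow cytometry (5000 events), constitutive endocytosis subtracted. Curves fitted by log(agonist) vs response, 3 parameters.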

[5] = target: T4, Mm_Fpr2 (Mus musculus, UniProt O88536); assay: as above; design: Emax: dose or concentration left out as unconfirmed; settings: for Emax (%), internalization, Mean: % of internalization to WKYMVm (1 mM in legend, 1 μM in text), Mm_Fpr2, 30 minutes; for Log EC50 (M), internalization, Mean: HEK293 stably expressing FLAG-Mm_Fpr2, ligand 30 minutes; for agonist-induced internalization (words): Mm_Fpr2, 30 min, relative to 1 μM WKYMVm
T4 construct: expressed in transfected cells
T4 sequence (O88536 1-351): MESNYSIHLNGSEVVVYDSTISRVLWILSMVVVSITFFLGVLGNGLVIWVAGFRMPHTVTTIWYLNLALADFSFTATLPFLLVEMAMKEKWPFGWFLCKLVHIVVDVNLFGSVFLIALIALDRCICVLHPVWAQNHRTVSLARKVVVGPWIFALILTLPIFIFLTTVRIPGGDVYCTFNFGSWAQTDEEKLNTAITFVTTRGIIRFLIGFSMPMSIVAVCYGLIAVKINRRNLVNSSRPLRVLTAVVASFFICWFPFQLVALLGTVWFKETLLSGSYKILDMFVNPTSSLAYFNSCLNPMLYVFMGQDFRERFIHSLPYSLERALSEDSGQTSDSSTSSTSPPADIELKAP
Procedure, shortened: as §4

[6] = target: T2, Hs_FPR2; assay: BRET receptor-RLuc8 interaction with Venus-mGsi; settings: for Log EC50 (M): log of EC50, HEK293 transient, 10 min; for Log EC50 (M) / Emax (%): mGsi BRET, mean, ND = no interaction detected; for Emax (%): % of response to 1 μM WKYMVm
Procedure, shortened: as §3

[7] = Hs_FPR2-Rluc8 donor, Arrestin 3-YFP acceptor, read-out: EC50 arrestin recruitment, BRET
[8] = read-out: Log EC50 (M), internalization, Mean (converted)

| Compound | agonist-induced internalization (words) [1] | Emax (%), internalization, Mean [2] [%] | agonist-induced internalization (words) [2] | Log EC50 (M), internalization, Mean [2] [M] | Emax (%) [3] [%] | EC50 [3, 7] [nM] | Log EC50 (M) [3] [M] | agonist-induced internalization (words) [4] | Emax (%), internalization, Mean [5] [%] | Log EC50 (M), internalization, Mean [5] [M] | agonist-induced internalization (words) [5] | Log EC50 (M) [6] [M] | Emax (%) [6] [%] | Emax [2] [%] | Emax [3] [%] | Emax [5] [%] | EC50 [6] [nM] | Emax [6] [%] | Emax [1] [%] | Emax [4] [%] | other results |
| --- | --- | --- | --- | --- | --- | --- | --- | --- | --- | --- | --- | --- | --- | --- | --- | --- | --- | --- | --- | --- | --- |
| Cc1cccc(-c2oc(C)nc2C(=O)Nc2cnn(Cc3nc(C(C)(F)F)co3)n2)c1 [ACT-389949] | only at 10 μM | 95.31 | full agonist | −7.975 | 73.56 | 18 | −7.74 | only at 10 μM | 118.5 | −6.539 | full agonist | −7.80 | 69.25 | – | – | – | – | – | – | – | fold less potency at Mm_Fpr2, internalization ([5]; equipotent to WKYMVm at Hs_FPR2): 28 fold |
| COc1cc(F)c([C@@H]2CNC(=O)[C@H]2NC(=O)Nc2ccccc2)c(F)c1 [BMS-986235] | failed to show appreciable internalization; also recorded: unable to induce any measurable internalization | – | robust internalization | – | – | 39.9 | – | failed to show appreciable internalization; also recorded: unable to induce any measurable internalization | – | – | robust internalization | – | – | 112 | 85.1 | 88 | 75.9 | 64.4 | – | – | EC50 [2, 8]: 9.1e-07 M; times more potent at Mm_Fpr2 than Hs_FPR2, internalization [5]: 9 times; EC50 [5, 8]: 1.03e-07 M |
| CCCCOc1ccc(C(=O)NN2C(=O)c3ccccc3NC2c2ccc(OC)cc2)cc1 (stereo not shown) [QuinC1] | partial agonists | 81.29 | partial agonists | −5.809 | 40.71 | – | −5.82 | partial agonists | 41.84 | −7.106 | partial agonists | −6.06 | 34.75 | – | – | – | – | – | – | – | Emax (%), internalization, Mean ([4]; % of internalization to WKYMVm (1 mM in legend, 1 μM in text), Mm_Fpr1, 30 minutes, ND denotes no internalization measured): 66.27%; Log EC50 (M), internalization, Mean ([4]; Log EC50, HEK293 stably expressing FLAG-Mm_Fpr1, ligand 30 minutes, ND denotes no internalization measured): −6.120 M |
| CSCC[C@H](NC(=O)[C@H](Cc1ccc(O)cc1)NC(=O)[C@H](CCCCN)NC(=O)[C@@H](N)Cc1c[nH]c2ccccc12)C(=O)N[C@H](C(=O)N[C@H](CCSC)C(N)=O)C(C)C [WKYMVm] | – | – | – | – | – | – | – | – | – | – | – | – | – | 97.5 | 102 | 102 | – | 100 | 106 | 108 | – |
| CSCC[C@H](NC=O)C(=O)N[C@@H](CC(C)C)C(=O)N[C@@H](Cc1ccccc1)C(=O)N[C@@H](CCCCN)C(=O)O [fMLFK, fMet-Leu-Phe-Lys] (For-MLFK-OH) | – | – | – | – | – | – | – | – | – | – | – | – | – | 99.9 | 92.7 | 81.6 | 26900 | 80.7 | 79.3 | 179 | EC50 [1]: 16.2 nM; EC50 [2]: 3.34e-05 M; EC50 ([3]; read-out: Log EC50 (converted)): 36300 nM; EC50 [4]: 6110 nM; EC50 [5]: 1.16e-05 M |
| LESIFRSLLFRVM [MMK1] | failed to show appreciable internalization | – | partial agonism | −7.216 | – | – | −7.03 | failed to show appreciable internalization | – | – | unable to induce internalization | −7.17 | – | 62.9 | 59.1 | 8.68 | – | 38.7 | – | 11.6 | agonist-induced internalization (words) ([1]; listed as MMK-1): unable to induce internalization; agonist-induced internalization (words) ([4]; listed as MMK-1): unable to induce internalization |

From article PMC12881670, “Investigation into ligand selectivity and bias at the formyl peptide receptor family” (The Journal of Pharmacology and Experimental Therapeutics, 2025)
